# From US20120101100A1 (priority 2008, published 2012)
# Molecular target: S. aureus GyrB ATPase (Staphylococcus aureus, UniProt P0A0K8)
# Experiment: S. aureus (SAU) GyrB ATPase inhibition, malachite green phosphate detection (E. coli GyrA + S. aureus GyrB)
# Format: biochemical
# Details: compound concentration of 1.0 μM unless otherwise noted; average value where assay was carried out more than once; read-out: S. aureus (SAU) GyrB ATPase % Inhibition
# In short: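 Phosphate from ATP hydrolysis (500 μM ATP) read as malachite green/molybdate absorbance at 650 nm after acid quench. Reaction: 1.25 nM S. aureus GyrB plus 1.25 nM E. coli GyrA, sheared DNA, Hepes pH 7.5 with Mg2+. IC50 fitted over 10 concentrations, normalised to DMSO (2%) and novobiocin (2 μM) controls.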
# Chain of S. aureus GyrB ATPase (P0A0K8 whole entry): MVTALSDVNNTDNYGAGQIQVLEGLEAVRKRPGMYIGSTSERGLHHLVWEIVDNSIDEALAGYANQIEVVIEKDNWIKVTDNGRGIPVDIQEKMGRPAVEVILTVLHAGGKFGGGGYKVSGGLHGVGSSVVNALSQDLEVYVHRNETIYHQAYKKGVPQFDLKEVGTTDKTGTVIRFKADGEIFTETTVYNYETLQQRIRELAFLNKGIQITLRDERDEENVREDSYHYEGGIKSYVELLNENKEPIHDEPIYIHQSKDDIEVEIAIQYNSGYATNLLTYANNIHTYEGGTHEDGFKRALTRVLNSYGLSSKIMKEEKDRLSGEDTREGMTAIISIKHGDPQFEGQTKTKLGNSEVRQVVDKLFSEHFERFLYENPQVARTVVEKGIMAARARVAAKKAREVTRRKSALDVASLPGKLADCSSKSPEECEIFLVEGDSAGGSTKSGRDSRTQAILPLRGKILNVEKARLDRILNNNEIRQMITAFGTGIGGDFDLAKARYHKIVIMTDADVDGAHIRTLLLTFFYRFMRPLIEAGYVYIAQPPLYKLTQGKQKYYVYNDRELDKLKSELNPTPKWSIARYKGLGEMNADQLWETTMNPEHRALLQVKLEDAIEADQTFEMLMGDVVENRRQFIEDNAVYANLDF
# Chain of S. aureus GyrB ATPase (P0AES4 whole entry, further chain): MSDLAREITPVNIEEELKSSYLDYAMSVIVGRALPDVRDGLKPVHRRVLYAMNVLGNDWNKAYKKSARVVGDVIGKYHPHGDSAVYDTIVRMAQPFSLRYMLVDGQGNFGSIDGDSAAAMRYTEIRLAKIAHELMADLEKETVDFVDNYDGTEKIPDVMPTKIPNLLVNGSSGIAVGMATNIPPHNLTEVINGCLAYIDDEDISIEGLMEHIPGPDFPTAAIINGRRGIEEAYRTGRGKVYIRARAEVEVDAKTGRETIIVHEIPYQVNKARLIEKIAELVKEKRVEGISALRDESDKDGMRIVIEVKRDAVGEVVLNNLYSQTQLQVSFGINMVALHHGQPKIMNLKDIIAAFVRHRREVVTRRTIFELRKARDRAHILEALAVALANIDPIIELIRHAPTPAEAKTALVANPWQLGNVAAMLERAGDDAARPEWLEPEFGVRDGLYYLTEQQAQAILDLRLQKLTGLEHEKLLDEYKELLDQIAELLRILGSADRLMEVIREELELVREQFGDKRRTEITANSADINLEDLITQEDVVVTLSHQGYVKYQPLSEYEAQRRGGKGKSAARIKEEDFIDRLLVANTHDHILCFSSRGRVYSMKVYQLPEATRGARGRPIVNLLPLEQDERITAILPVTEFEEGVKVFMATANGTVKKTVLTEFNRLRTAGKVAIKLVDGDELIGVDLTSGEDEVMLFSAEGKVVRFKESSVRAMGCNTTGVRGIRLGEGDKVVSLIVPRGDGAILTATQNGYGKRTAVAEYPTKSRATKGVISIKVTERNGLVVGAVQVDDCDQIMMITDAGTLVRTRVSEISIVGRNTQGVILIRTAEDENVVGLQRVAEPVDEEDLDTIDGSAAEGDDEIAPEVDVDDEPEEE
row,SMILES,inhibition at 1 µM
1,CCCNC(=O)Nc1cc(-c2nc(C(F)(F)F)cs2)c(-c2cc(-c3nnc(C)o3)cnc2OCCN(C)C)cn1 [Example 167],96%
2,CCCNC(=O)Nc1cc(-c2nc(C(F)(F)F)cs2)c(-c2cc(-c3nnc(C)o3)cnc2OCCN2CCCC2)cn1 [Example 168],69%
3,"CCCNC(=O)Nc1cc(-c2nc(C(F)(F)F)cs2)c(-c2cc(-c3nnc(C)o3)cnc2OC2CCOCC2)cn1 [Example 169, 1-(5′-(5-Methyl-1,3,4-oxadiazol-2-yl)-2′-(tetrahydro-2H-pyran-4-yloxy)-4-(4-(trifluoromethyl)thiazol-2-yl)-3,3′-bipyridin-6-yl)-3-propylurea]",96%
4,CCCNC(=O)Nc1cc(-c2nc(C(F)(F)F)cs2)c(-c2cc(-c3n[nH]c(=O)o3)cnc2OCCN2CCCC2)cn1 [Example 171],106%
5,"CCCNC(=O)Nc1cc(-c2nc(C(F)(F)F)cs2)c(-c2cncc(-c3nnc(C)o3)c2)cn1 [Example 173, 1-(5′-(5-methyl-1,3,4-oxadiazol-2-yl)-4-(4-(trifluoromethyl)thiazol-2-yl)-3,3′-bipyridin-6-yl)-3-propylurea]",95%
6,"CCCNC(=O)Nc1cc(-c2nc(C(F)(F)F)cs2)c(-c2ccnc(-c3nnc(O)o3)c2)cn1 [Example 175, 1-(2′-(5-hydroxy-1,3,4-oxadiazol-2-yl)-4-(4-(trifluoromethyl)thiazol-2-yl)-3,4′-bipyridin-6-yl)-3-propylurea]",93%
7,CCNC(=O)Nc1cc(-c2nc(C(F)(F)F)cs2)c(-c2cncc(-c3nn(C(=O)N4CCOCC4)c(=O)o3)c2)cn1 [Example 176],98%
8,CCNC(=O)Nc1cc(-c2nc(C(F)(F)F)cs2)c(-c2cncc(-c3nn(C(=O)N4CCCCC4)c(=O)o3)c2)cn1 [Example 177],86%
9,CCNC(=O)Nc1cc(-c2nc(C(F)(F)F)cs2)c(-c2cncc(-c3nnc(N4CC[C@@H](O)C4)o3)c2)cn1 [Example 178],97%
10,CCNC(=O)Nc1cc(-c2nc(C(F)(F)F)cs2)c(-c2cncc(-c3nnc(N4CC[C@H](O)C4)o3)c2)cn1 [Example 179],101%
11,CCNC(=O)Nc1cc(-c2nc(C(F)(F)F)cs2)c(-c2cncc(-c3nnc(N4CCC(O)CC4)o3)c2)cn1 [Example 180],96%
12,CCNC(=O)Nc1cc(-c2nc(C(F)(F)F)cs2)c(-c2cncc(-c3nnc(N4CCCC(O)C4)o3)c2)cn1 (centres unmarked) [Example 181],97%
13,CCNC(=O)Nc1cc(-c2nc(C(F)(F)F)cs2)c(-c2cncc(-c3nnc(N4CC(O)C4)o3)c2)cn1 [Example 182],99%
14,CCNC(=O)Nc1cc(-c2nc(C(F)(F)F)cs2)c(-c2cncc(-c3nnc([C@@H](N)C(C)C)o3)c2)cn1 [Example 183],96%
15,CCNC(=O)Nc1cc(-c2nc(-c3cnn(C)c3)cs2)c(-c2cncc(S(N)(=O)=O)c2)cn1 [Example 185],99%
16,CCNC(=O)Nc1cc(-c2nc(C(F)(F)F)cs2)c(-c2cc(-c3n[nH]c(=O)o3)cnc2OCCN2CCCC2)cn1 [Example 186],110%
17,CCNC(=O)Nc1cc(-c2nc(C(F)(F)F)cs2)c(-c2cc(-c3n[nH]c(=O)o3)cnc2OC2CCOCC2)cn1 [Example 187],100%
18,CCNC(=O)Nc1cc(-c2nc(C(F)(F)F)cs2)c(-c2nc(-c3n[nH]c(=O)o3)cs2)cn1 [Example 188],97%
19,CCNC(=O)Nc1cc(-c2nc(C(F)(F)F)cs2)c(-c2cnc(OC)c(-c3n[nH]c(=O)o3)c2)cn1 [Example 189],103%
20,CCNC(=O)Nc1cc(-c2nc(C(F)(F)F)cs2)c(-c2cnc(-c3n[nH]c(=O)o3)cn2)cn1 [Example 190],100%

row,SMILES,inhibition at 1 µM
1,CCNC(=O)Nc1cc(-c2nc(C(F)(F)F)cs2)c(-c2ccc(-c3n[nH]c(=O)o3)nn2)cn1 [Example 191],99%
2,CCNC(=O)Nc1cc(-c2nnc(-c3ccccc3)o2)c(-c2ccnc(-c3n[nH]c(=O)o3)c2)cn1 [Example 192],101%
3,CCNC(=O)Nc1cc(-c2nnc(-c3ccccc3)o2)c(-c2nc(-c3n[nH]c(=O)o3)cs2)cn1 [Example 193],89%
4,CCNC(=O)Nc1cc(-c2nnc(-c3ccccc3)o2)c(-c2ncc(-c3n[nH]c(=O)o3)s2)cn1 [Example 194],101%
5,CCNC(=O)Nc1cc(-c2nnc(-c3ccccc3)o2)c(-c2cnc(-c3n[nH]c(=O)o3)cn2)cn1 [Example 195],98%
6,CCNC(=O)Nc1cc(-c2nnc(-c3ccccc3)o2)c(-c2cncc(-c3n[nH]c(=O)o3)c2)cn1 [Example 196],118%
7,CCNC(=O)Nc1cc(-c2nnc(-c3ccccc3)o2)c(-c2cnc(OC)c(-c3n[nH]c(=O)o3)c2)cn1 [Example 197],106%
8,CCNC(=O)Nc1cc(-c2nnc(-c3ccc(F)cc3)o2)c(-c2cncc(-c3n[nH]c(=O)o3)c2)cn1 [Example 198],104%
9,CCNC(=O)Nc1cc(-c2nc(-c3ccccc3)cs2)c(-c2nc(-c3ncccn3)c(-c3n[nH]c(=O)o3)s2)cn1 [Example 199],94%
10,CCNC(=O)Nc1cc(-c2nc(-c3ccccc3)cs2)c(-c2nc(-c3ncnn3C)c(-c3n[nH]c(=O)o3)s2)cn1 [Example 200],93%
11,CCNC(=O)Nc1cc(-c2nc(-c3ccccn3)cs2)c(-c2nc(-c3ncccn3)c(-c3n[nH]c(=O)o3)s2)cn1 [Example 201],107%
12,CCNC(=O)Nc1cc(-c2nc(-c3cccc(OC)n3)cs2)c(-c2cncc(-c3n[nH]c(=O)o3)c2)cn1 [Example 202],43%
13,CCNC(=O)Nc1cc(-c2nc(-c3ccc(OC)nc3)cs2)c(-c2cncc(-c3n[nH]c(=O)o3)c2)cn1 [Example 203],104%
14,CCNC(=O)Nc1cc(-c2nc(-c3cccnc3F)cs2)c(-c2cncc(-c3n[nH]c(=O)o3)c2)cn1 [Example 204],101%
15,CCNC(=O)Nc1cc(-c2nc(-c3cnn(C)c3)cs2)c(-c2cnc(OC)c(-c3n[nH]c(=O)o3)c2)cn1 [Example 205],100%
16,CCNC(=O)Nc1cc(-c2nc(-c3cnn(C)c3)cs2)c(-c2cncc(-c3n[nH]c(=O)o3)n2)cn1 [Example 206],99%
17,CCNC(=O)Nc1cc(-c2nc(-c3cccnc3OCCOC)cs2)c(-c2cnc(OC)c(-c3n[nH]c(=O)o3)c2)cn1 [Example 207],101%
18,CCNC(=O)Nc1cc(-c2nc(-c3cccnc3OCCOC)cs2)c(-c2cncc(-c3n[nH]c(=O)o3)c2)cn1 [Example 208],100%
19,CCNC(=O)Nc1cc(-c2nc(C3CCCC3)cs2)c(-c2cncc(-c3n[nH]c(=O)o3)c2)cn1 [Example 209],95%
20,CCNC(=O)Nc1cc(-c2nc(C3CC3)cs2)c(-c2cncc(-c3n[nH]c(=O)o3)c2)cn1 [Example 210],65%

row,SMILES,inhibition at 1 µM
1,CCNC(=O)Nc1cc(-c2nc(C3CCCCC3)cs2)c(-c2cncc(-c3n[nH]c(=O)o3)c2)cn1 [Example 211],109%
2,CCNC(=O)Nc1cc(-c2nc(C3CCOC(C)(C)C3)cs2)c(-c2cncc(-c3n[nH]c(=O)o3)c2)cn1 (centres unmarked) [Example 212],97%
3,CCNC(=O)Nc1cc(-c2nc(C3CCN(C(=O)n4ccnc4)CC3)cs2)c(-c2cncc(-c3n[nH]c(=O)o3)c2)cn1 [Example 213],95%
4,CCNC(=O)Nc1cc(-c2nc(C(F)(F)F)cs2)c(-c2cc(-c3n[nH]c(=O)o3)cnc2OC2CCCCC2)cn1 [Example 214],109%
5,CCNC(=O)Nc1cc(-c2nc(C(F)(F)F)cs2)c(-c2cc(-c3n[nH]c(=O)o3)cnc2OC2CCN(C)CC2)cn1 [Example 215],96%
6,CCNC(=O)Nc1cc(-c2nc(C(F)(F)F)cs2)c(-c2cc(-c3n[nH]c(=O)o3)cnc2OCC2CC2)cn1 [Example 216],96%
7,CCNC(=O)Nc1cc(-c2nc(C(F)(F)F)cs2)c(-c2cc(-c3n[nH]c(=O)o3)cnc2OC2CCCC2)cn1 [Example 217],95%
8,CCNC(=O)Nc1cc(-c2nc(C(F)(F)F)cs2)c(-c2cc(-c3n[nH]c(=O)o3)cnc2OC2CC(C)(C)N(C)C(C)(C)C2)cn1 [Example 218],99%
9,CCNC(=O)Nc1cc(-c2nc(C(F)(F)F)cs2)c(-c2cc(-c3n[nH]c(=O)o3)cnc2OC2CCN(C(C)C)CC2)cn1 [Example 219],97%
10,CCNC(=O)Nc1cc(-c2nc(C(F)(F)F)cs2)c(-c2cc(-c3n[nH]c(=O)o3)cnc2OCCCC2CCCC2)cn1 [Example 220],91%
11,CCNC(=O)Nc1cc(-c2nc(-c3cnn(C)c3)cs2)c(-c2cc(-c3n[nH]c(=O)o3)cnc2OCC2CC2)cn1 [Example 221],99%
12,CCNC(=O)Nc1cc(-c2nc(-c3cnn(C)c3)cs2)c(-c2cc(-c3n[nH]c(=O)o3)cnc2OC2CCOCC2)cn1 [Example 222],97%
13,CCNC(=O)Nc1cc(-c2nc(C(F)(F)F)cs2)c(-c2cc(-c3n[nH]c(=O)o3)cnc2OCC2CCN(C)CC2)cn1 [Example 223],95%
14,CCNC(=O)Nc1cc(-c2nc(C(F)(F)F)cs2)c(-c2cc(-c3n[nH]c(=O)o3)cnc2OCCC2CCCN2C)cn1 (centres unmarked) [Example 224],94%
15,CCNC(=O)Nc1cc(-c2nc(C(F)(F)F)cs2)c(-c2cc(-c3n[nH]c(=O)o3)cnc2OC[C@@H](C)O)cn1 [Example 225],117%
16,CCNC(=O)Nc1cc(-c2nc(C(F)(F)F)cs2)c(-c2cc(-c3n[nH]c(=O)o3)cnc2OC[C@H](C)O)cn1 [Example 226],109%
17,CCNC(=O)Nc1cc(-c2nc(C(F)(F)F)cs2)c(-c2cc(-c3n[nH]c(=O)o3)cnc2OC2C[C@H]3CC[C@@H](C2)N3C)cn1 (some centres unmarked) [Example 227],100%
18,CCNC(=O)Nc1cc(-c2nc(C(F)(F)F)cs2)c(-c2ccnc(-c3nnc(C)o3)c2)cn1 [Example 228],93%
19,CCNC(=O)Nc1cc(-c2nnc(-c3ccccc3)o2)c(-c2ccnc(-c3nnc(C)o3)c2)cn1 [Example 229],99%
